Laboratory results as given in patent publication US10077261B2, “Imidazolin-5-one derivative useful as FASN inhibitors for the treatment of cancer” (Janssen Pharmaceutica NV, priority 2012, dated 2018).

How the values were obtained:
[1] = system: LNCaP-Vancouver prostate cells; assay: In vitro LNCaP Vancouver prostate cell proliferation assay in lipid reduced medium; assay type: cell-based; conditions: read-out: pIC50 LNCaP_Vancouver prostate cell (converted)
A2780 ovarian cells [2] = assay: A2780 ovarian cell proliferation assay in lipid reduced medium, without palmitate (MTT); assay type: cell-based; conditions: Homo sapiens, A2780, 96 h; read-out: pIC50 A2780 Ovarian Cell, Without Palmitate (converted)
[3] = biological target: Fatty Acid Synthase Keto-reductase Domain (FASN KR) (Homo sapiens, UniProt P49327); assay: Fatty Acid Synthase keto-reductase domain (FASN KR) inhibition, NADPH oxidation at 340 nm
Fatty Acid Synthase Keto-reductase Domain (FASN KR), sequence (P49327 whole entry, the tested form may be a part): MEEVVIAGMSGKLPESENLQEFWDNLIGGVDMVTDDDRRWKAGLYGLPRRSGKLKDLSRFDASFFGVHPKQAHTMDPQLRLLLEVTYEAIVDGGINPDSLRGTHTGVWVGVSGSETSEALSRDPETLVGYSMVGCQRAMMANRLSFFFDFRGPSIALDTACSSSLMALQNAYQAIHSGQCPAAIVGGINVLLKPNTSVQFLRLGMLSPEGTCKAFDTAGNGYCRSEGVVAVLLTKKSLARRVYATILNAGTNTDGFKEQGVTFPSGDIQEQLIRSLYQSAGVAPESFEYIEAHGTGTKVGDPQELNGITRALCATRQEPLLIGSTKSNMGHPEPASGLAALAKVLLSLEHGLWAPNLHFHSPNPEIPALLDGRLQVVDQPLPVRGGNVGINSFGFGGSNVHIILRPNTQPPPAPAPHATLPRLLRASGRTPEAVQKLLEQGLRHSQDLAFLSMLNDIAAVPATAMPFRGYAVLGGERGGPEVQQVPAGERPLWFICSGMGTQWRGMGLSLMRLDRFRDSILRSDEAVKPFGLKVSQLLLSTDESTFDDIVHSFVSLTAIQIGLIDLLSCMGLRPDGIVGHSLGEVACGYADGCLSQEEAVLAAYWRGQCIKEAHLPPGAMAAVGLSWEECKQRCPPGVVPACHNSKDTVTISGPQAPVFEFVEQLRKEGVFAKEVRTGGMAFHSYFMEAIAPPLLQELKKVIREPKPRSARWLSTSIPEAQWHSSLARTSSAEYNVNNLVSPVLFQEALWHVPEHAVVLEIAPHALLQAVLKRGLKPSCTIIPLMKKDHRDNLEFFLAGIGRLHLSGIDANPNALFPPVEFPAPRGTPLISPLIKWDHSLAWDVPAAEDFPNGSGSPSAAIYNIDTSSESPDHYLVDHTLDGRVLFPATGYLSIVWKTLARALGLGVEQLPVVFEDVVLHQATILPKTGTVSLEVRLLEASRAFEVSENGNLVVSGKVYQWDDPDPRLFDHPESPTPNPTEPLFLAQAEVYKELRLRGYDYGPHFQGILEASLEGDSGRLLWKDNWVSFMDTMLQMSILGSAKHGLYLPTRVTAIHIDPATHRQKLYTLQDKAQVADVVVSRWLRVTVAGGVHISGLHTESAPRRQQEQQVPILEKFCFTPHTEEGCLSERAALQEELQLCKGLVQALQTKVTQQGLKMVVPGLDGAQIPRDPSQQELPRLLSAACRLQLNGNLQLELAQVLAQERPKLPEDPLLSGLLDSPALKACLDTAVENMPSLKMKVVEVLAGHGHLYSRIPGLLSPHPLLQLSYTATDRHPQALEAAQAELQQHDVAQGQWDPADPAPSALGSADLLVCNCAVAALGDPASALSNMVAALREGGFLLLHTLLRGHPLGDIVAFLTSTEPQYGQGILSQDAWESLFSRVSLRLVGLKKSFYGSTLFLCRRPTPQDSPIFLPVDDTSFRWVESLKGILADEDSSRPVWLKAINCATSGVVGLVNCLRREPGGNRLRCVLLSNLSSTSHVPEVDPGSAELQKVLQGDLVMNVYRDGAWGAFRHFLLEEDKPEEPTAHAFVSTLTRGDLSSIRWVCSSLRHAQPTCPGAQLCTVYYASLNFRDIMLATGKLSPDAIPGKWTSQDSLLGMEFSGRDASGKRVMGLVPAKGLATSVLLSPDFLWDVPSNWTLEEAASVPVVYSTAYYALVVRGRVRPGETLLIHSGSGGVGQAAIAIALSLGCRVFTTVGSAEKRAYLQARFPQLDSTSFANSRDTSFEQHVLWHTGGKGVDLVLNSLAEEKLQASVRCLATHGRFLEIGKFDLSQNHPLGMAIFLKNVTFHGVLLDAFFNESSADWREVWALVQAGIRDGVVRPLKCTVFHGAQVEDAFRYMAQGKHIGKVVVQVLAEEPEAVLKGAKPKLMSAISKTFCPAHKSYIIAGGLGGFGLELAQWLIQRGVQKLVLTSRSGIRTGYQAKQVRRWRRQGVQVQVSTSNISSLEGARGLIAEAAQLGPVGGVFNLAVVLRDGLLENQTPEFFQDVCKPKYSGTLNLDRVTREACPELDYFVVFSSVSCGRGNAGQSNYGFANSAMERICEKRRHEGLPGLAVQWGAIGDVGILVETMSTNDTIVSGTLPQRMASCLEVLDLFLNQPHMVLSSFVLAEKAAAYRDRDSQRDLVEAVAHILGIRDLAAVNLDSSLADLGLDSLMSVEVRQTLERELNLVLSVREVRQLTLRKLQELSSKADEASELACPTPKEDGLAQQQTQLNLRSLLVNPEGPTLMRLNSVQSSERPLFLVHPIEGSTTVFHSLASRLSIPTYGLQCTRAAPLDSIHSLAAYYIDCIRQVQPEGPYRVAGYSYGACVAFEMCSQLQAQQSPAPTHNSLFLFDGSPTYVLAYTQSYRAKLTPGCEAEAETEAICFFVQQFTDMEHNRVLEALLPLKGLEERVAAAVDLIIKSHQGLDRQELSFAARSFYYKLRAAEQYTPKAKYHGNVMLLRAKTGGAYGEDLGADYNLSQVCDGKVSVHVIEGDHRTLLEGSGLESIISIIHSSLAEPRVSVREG
Procedure: After 20 minutes incubation at room temperature the plate was measured again (T2).
The decrease in absorbance was calculated as (Absorbance before incubation T1)−(Absorbance following incubation T2).
A plot of Controlmin versus test compound concentration was fitted to a 4-parameter logistic curve using a non-linear least squares regression method.

A2780 ovarian cells [4] = assay: A2780 ovarian cell proliferation assay in lipid reduced medium, with palmitate (MTT); assay type: cell-based; conditions: Homo sapiens, A2780, 96 h; read-out: pIC50 A2780 Ovarian Cell, With Palmitate (converted)
Procedure, shortened: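 Seeded cells were switched next day to lipid-reduced serum, exposed to compound and 25 μM palmitate complexed with fatty-acid-free BSA, and incubated 96 h. Proliferation was then determined by MTT absorbance at 544 nm, with a best-fit curve of signal against concentration.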

[5] = biological target: T1, hFASN enzyme (full length) (Homo sapiens, UniProt P49327); assay: Fatty Acid Synthase (FASN) inhibition scintillation proximity assay; assay type: biochemical; conditions: for inhibition at 10 µM: read-out: Human FASN % inhibition @ 10 μM, 10 μM test compound; for IC50: read-out: Human FASN pIC50 (converted); for Human FASN pIC50: hFASN enzyme full length, scintillation proximity assay, "~" = standard error of pIC50 larger than 0.5
T1 construct: 10 μL hFASN enzyme (full length, 300 ng, purified in house); made in house
T1 sequence (P49327 whole entry): as the sequence (P49327 whole entry, the tested form may be a part) above
Procedure, shortened: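 Purified full-length hFASN (300 ng) converts ^3H-acetyl-CoA plus malonyl-CoA to ^3H-palmitate in 100 mM KH2PO4 pH 7.5, 1 mM DTT; compounds tested at 0.01–30 μM. Product captured on streptavidin imaging beads and read by LEADseeker at 610 nm after ≥24 h; 4-parameter logistic fit versus controls.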

[6] = system: PC-3M-Luc-C6 prostate cells; assay: In vitro PC-3M-Luc-C6 prostate cell proliferation assay in lipid reduced medium; assay type: cell-based; conditions: 96 h, read-out: pIC50 PC-3M-Luc-C6 prostate cell (converted)

SMILES | IC50 [1] | IC50 (A2780 ovarian cells [2]) | IC50 [3] | IC50 (A2780 ovarian cells [4]) | inhibition at 10 µM [5] | IC50 [5] | IC50 [6] | Human FASN pIC50 [5] | FASN Keto-reductase Domain pIC50 ([3]; NADPH oxidation, absorbance at 340 nm, ethyl acetoacetate substrate)
O=C(C1CC1)N1CC(CN2C(=O)C3(CC3)N=C2c2ccc(-c3ccc4cccnc4c3)cc2F)C1 [compound 346, 6-((1-(cyclopropanecarbonyl)azetidin-3-yl)methyl)-5-(2-fluoro-4-(quinolin-7-yl)phenyl)-4,6-diazaqspiro[2.4]hept-4-en-7-one] | 0.0437 µM | ~0.017 µM | 0.0537 µM | > 10 µM | 97% | 0.049 µM | 0.0224 µM |  | 
Cc1cc(-c2cccc3[nH]ncc23)ccc1C1=NC2(CC2)C(=O)N1C[C@@H]1CCN(C(=O)C2CC2)C1 [compound 306, (R)-5-(4-(1H-indazol-4-yl)-2-methylphenyl)-6-((1-(cyclopropanecarbonyl)pyrrolidin-3-yl)methyl)-4,6-diazaspiro[2.4]hept-4-en-7-one] | 0.513 µM | 0.0178 µM | 0.105 µM | > 10 µM | 98% | 0.0501 µM | 0.017 µM |  | 
Cn1ncc2cc(-c3ccc(C4=NC5(CC5)C(=O)N4C[C@@H]4CCN(C(=O)C5CC5)C4)cn3)ccc21 [compound 421, 6-{[(3R)-1-(Cyclopropylcarbonyl)pyrrolidin-3-yl]methyl}-5-[6-(1-methyl-1H-indazol-5-yl)pyridin-3-yl]-4,6-diazaspiro[2.4]hept-4-en-7-one] | 1.29 µM | 1.15 µM | 1.78 µM | > 10 µM | 94% |  | 1.05 µM | 6.34 | 
Cc1cc(-c2ccc3cc(C#N)ccc3c2)ccc1C1=NC2(CC2)C(=O)N1CC1CN(C(=O)C2(F)CC2)C1 [compound 273, 6-(4-(6-((1-(1-fluorocyclopropanecarbonyl)azetidin-3-yl)methyl)-7-oxo-4,6-diazaspiro[2.4]hept-4-en-5-yl)-3-methylphenyl)-2-naphthonitrile] | 0.355 µM | ~0.0209 µM | 0.145 µM | 7.94 µM | 102% | 0.0427 µM | 0.0676 µM |  | 
O=C(C1CC1)N1CC(CN2C(=O)C3(CC3)N=C2c2ccc(-c3ccc4cc(Cl)cnc4c3)cc2)C1 [compound 339, 5-(4-(3-chloroquinolin-7-yl)phenyl)-6-((1-(cyclopropanecarbonyl)azetidin-3-yl)methyl)-4,6-diazaspiro[2.4]hept-4-en-7-one] | 0.324 µM | 0.0288 µM | 0.0479 µM | ~2.82 µM | 95% | 0.0309 µM | 0.0316 µM |  | 
Cc1oc2ccc(-c3ccc(C4=NC5(CC5)C(=O)N4C[C@@H]4CCN(C(=O)C5CC5)C4)c(F)c3)cc2c1C [compound 244, (R)-6-((1-(cyclopropanecarbonyl)pyrrolidin-3-yl)methyl)-5-(4-(2,3-dimethylbenzofuran-5-yl)-2-fluorophenyl)-4,6-diazaspiro[2.4]hept-4-en-7-one] | 1.82 µM | ~2.24 µM | 0.0562 µM | > 10 µM | 101% | 0.0562 µM | ~1.41 µM |  | 
CS(=O)(=O)N1CCC2(CC1)N=C(c1ccc(-c3ccc4occc4c3)cc1)N(C[C@@H]1CCN(C(=O)C3CC3)C1)C2=O [compound 746, 2-[4-(1-Benzofuran-5-yl)phenyl]-3-{[(3R)-1-(cyclopropylcarbonyl)pyrrolidin-3-yl]methyl}-8-(methylsulfonyl)-1,3,8-triazaspiro[4.5]dec-1-en-4-one] | ~3.89 µM | ~1.86 µM | 1.07 µM | > 10 µM | 94% | 0.275 µM | ~1.66 µM |  | 
Cc1cc2cc(-c3ccc(C4=NC5(CC5)C(=O)N4CC4CN(C(=O)C5CC5)C4)c(F)c3)ccc2o1 [compound 353, 6-((1-(cyclopropanecarbonyl)azetidin-3-yl)methyl)-5-(2-fluoro-4-(2-methylbenzofuran-5-yl)phenyl)-4,6-diazaspiro[2.4]hept-4-en-7-one] | 1.15 µM | 0.245 µM | 0.107 µM | 6.03 µM | 101% | 0.055 µM | 0.437 µM |  | 
O=C(C1CC1)N1CC[C@@H](CN2C(=O)C3(CC3)N=C2c2ccc(-c3ccc4cc(F)ccc4c3)cc2F)C1 [compound 259, (R)-6-((1-(cyclopropanecarbonyl)pyrrolidin-3-yl)methyl)-5-(2-fluoro-4-(6-fluoronaphthalen-2-yl)phenyl)-4,6-diazaspiro[2.4]hept-4-en-7-one] | 0.447 µM | 0.105 µM | 0.0295 µM | > 10 µM | 95% | 0.0251 µM | 0.0676 µM |  | 
Cc1cc(-c2ccc(-c3ccn(CC4CC4)n3)cc2)ccc1C1=NC2(CC2)C(=O)N1CC1CN(C(=O)C2(C)CC2)C1 [compound 601, 5-{4′-[1-(Cyclopropylmethyl)-1H-pyrazol-3-yl]-3-methylbiphenyl-4-yl}-6-({1-[(1-methylcyclopropyl)carbonyl]azetidin-3-yl}methyl)-4,6-diazaspiro[2.4]hept-4-en-7-one] | 1.02 µM | 0.219 µM | 0.501 µM | 3.89 µM | 100% | 0.186 µM | 0.316 µM |  | 
O=C(C1CC1)N1CC[C@@H](CN2C(=O)C3(CC3)N=C2c2ccc(-c3ccc4[nH]ccc4c3)nc2)C1 [compound 402, 6-{[(3R)-1-(Cyclopropylcarbonyl)pyrrolidin-3-yl]methyl}-5-[6-(1H-indol-5-yl)pyridin-3-yl]-4,6-diazaspiro[2.4]hept-4-en-7-one] | 1.74 µM | 0.174 µM | 0.302 µM | > 10 µM | 102% | 0.138 µM | 0.174 µM |  | 
N#Cc1ccc2nc(-c3ccc(C4=NC5(CC5)C(=O)N4CC4CN(C(=O)C5CC5)C4)c(F)c3)sc2c1 [compound 268, 2-(4-(6-((1-(cyclopropanecarbonyl)azetidin-3-yl)methyl)-7-oxo-4,6-diazaspiro[2.4]hept-4-en-5-yl)-3-fluorophenyl)benzo[d]thiazole-6-carbonitrile] | 0.288 µM | ~0.0447 µM | 0.0692 µM | > 10 µM | 104% | 0.055 µM | 0.0589 µM |  | 
Cc1cc(C2=NC3(CC3)C(=O)N2C[C@@H]2CCN(C(=O)C3CC3)C2)ccc1-c1cccc2[nH]ncc12 [compound 445, 6-{[(3R)-1-(Cyclopropylcarbonyl)pyrrolidin-3-yl]methyl}-5-[4-(1H-indazol-4-yl)-3-methylphenyl]-4,6-diazaspiro[2.4]hept-4-en-7-one] | 1.17 µM | 0.0676 µM | 0.209 µM | > 10 µM | 100% | 0.182 µM | 0.234 µM |  | 
CS(=O)(=O)N1CCC2(CC1)N=C(c1ccc(-c3ccc4[nH]ccc4c3)cc1)N(CC1CN(C(=O)C3CC3)C1)C2=O [compound 762, 3-{[1-(Cyclopropylcarbonyl)azetidin-3-yl]methyl}-2-[4-(1H-indol-5-yl)phenyl]-8-(methylsulfonyl)-1,3,8-triazaspiro[4.5]dec-1-en-4-one] | 3.89 µM | ~0.977 µM | 0.759 µM | > 10 µM | 95% | 0.316 µM | 0.813 µM |  | 
Cc1cc(-c2ccc3[nH]ncc3c2)ccc1C1=NC2(CC2)C(=O)N1CC1CN(C(=O)C2CC2)C1 [compound 293, 5-(4-(1H-indazol-5-yl)-2-methylphenyl)-6-((1-(cyclopropanecarbonyl)azetidin-3-yl)methyl)-4,6-diazaspiro[2.4]hept-4-en-7-one] | ~0.513 µM | 0.0871 µM | 0.174 µM | > 10 µM | 105% | 0.038 µM | ~0.141 µM |  | 
Cn1cc(-c2ccc(-c3ccc(C4=NC5(CC5)C(=O)N4C[C@@H]4CCN(C(=O)C5CC5)C4)cc3)cc2)cn1 [compound 65, (R)-6-((1-(Cyclopropanecarbonyl)pyrrolidin-3-yl)methyl)-5-(4′-(methyl-1H-pyrazol-4-yl)-[1,1′-biphenyl]-4-yl)-4,6-diazaspiro[2.4]hept-4-en-7-one] | 0.0661 µM | ~0.0132 µM |  | > 10 µM | 101% |  | ~0.0245 µM | 7.55 | 7.27
Cc1cc2cc(-c3ccc(C4=NC5(CC5)C(=O)N4C[C@@H]4CCN(C(=O)C5CC5)C4)cc3)ccc2s1 [compound 295, (R)-6-((1-(cyclopropanecarbonyl)pyrrolidin-3-yl)methyl)-5-(4-(2-methylbenzo[b]thiophen-5-yl)phenyl)-4,6-diazaspiro[2.4]hept-4-en-7-one] | 1.29 µM | 0.631 µM | 0.105 µM | > 10 µM | 100% | 0.0537 µM | ~0.575 µM |  | 
